Experimental data published in PubChem BioAssay (NCI).
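Five compound concentrations were applied to cells in 96-well plates for 48 hours; endpoints were derived by simple linear interpolation of the resulting dose-response curve. The concentration for 50% growth inhibition is given as GI50. TGI is the concentration that stops growth completely.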

How the values were obtained:
Assay in all cases: growth of human tumour cells (NCI), 48 h; in the data active = GI50 below about 0.43 µM; inactive = the rest
[1] = tested on: 786-0 renal
[2] = tested on: U251 CNS
[3] = tested on: BT-549 breast
[4] = tested on: HCC-2998 colon
[5] = tested on: SK-MEL-28 melanoma
[6] = tested on: MCF7 breast
[7] = tested on: UACC-62 melanoma
[8] = tested on: NCI/ADR-RES ovarian
[9] = tested on: DU-145 prostate
[10] = tested on: HCT-15 colon
[11] = tested on: SF-295 CNS
[12] = tested on: M14 melanoma
[13] = tested on: KM12 colon
[14] = tested on: SNB-19 CNS
[15] = tested on: UO-31 renal
[16] = tested on: SNB-75 CNS
[17] = tested on: NCI-H460 lung
[18] = tested on: RXF 393 renal
[19] = tested on: K-562 leukemia
[20] = tested on: COLO 205 colon
[21] = tested on: TK-10 renal
[22] = tested on: HOP-92 NSCLC
[23] = tested on: SF-539 CNS
[24] = tested on: NCI-H226 lung
[25] = tested on: LOX IMVI melanoma
[26] = tested on: SK-MEL-2 melanoma
[27] = tested on: SF-268 CNS
[28] = tested on: HT29 colon
[29] = tested on: RPMI-8226 leukemia
[30] = tested on: HOP-62 NSCLC
[31] = tested on: IGROV1 ovarian
[32] = tested on: CAKI-1 renal
[33] = tested on: OVCAR-3 ovarian
[34] = tested on: A498 renal
[35] = tested on: OVCAR-8 ovarian
[36] = tested on: MALME-3M melanoma
[37] = tested on: OVCAR-5 ovarian
[38] = tested on: ACHN renal
[39] = tested on: SR leukemia
[40] = tested on: T-47D breast
[41] = tested on: NCI-H522 lung
[42] = tested on: MDA-MB-435
[43] = tested on: NCI-H23 lung
[44] = tested on: SK-MEL-5 melanoma
[45] = tested on: SN12C renal
[46] = tested on: SW-620 colon
[47] = tested on: MDA-MB-231 breast
[48] = tested on: PC-3 prostate
[49] = tested on: HL-60(TB) leukemia
[50] = tested on: SK-OV-3 ovarian
[51] = tested on: HCT-116 colon
[52] = tested on: A549 NSCLC
[53] = tested on: UACC-257 melanoma
[54] = tested on: OVCAR-4 ovarian
[55] = tested on: HS 578T breast
[56] = tested on: CCRF-CEM leukemia
[57] = tested on: MOLT-4 leukemia

CN(C)CC#Cc1cccc(C(=O)c2cnn(-c3ccc(F)cc3)c2N)c1
> 25 µM: TGI [1] | TGI [2] | TGI [3] | TGI [4] | TGI [5] | TGI [6] | TGI [7] | TGI [8] | TGI [9] | TGI [10] | TGI [11] | TGI [12] | TGI [13] | TGI [14] | TGI [15] | TGI [16] | TGI [17] | TGI [18] | TGI [19] | TGI [20] | TGI [21] | TGI [22] | TGI [23] | TGI [24] | TGI [25] | TGI [26] | TGI [27] | TGI [28] | TGI [29] | TGI [30] | TGI [31] | TGI [32] | TGI [33] | TGI [34] | TGI [35] | TGI [36] | TGI [37] | TGI [38] | TGI [39] | TGI [40] | TGI [41] | TGI [42] | TGI [43] | TGI [44] | TGI [45] | TGI [46] | TGI [47] | TGI [48] | TGI [49] | TGI [50] | TGI [51] | TGI [52] | TGI [53] | TGI [54] | TGI [55] | TGI [56] | TGI [57]
inactive: GI50 [1] > 25 µM | GI50 [2] > 25 µM | GI50 [3] > 25 µM | GI50 [4] > 25 µM | GI50 [5] > 25 µM | GI50 [6] > 25 µM | GI50 [7] > 25 µM | GI50 [8] > 25 µM | GI50 [9] > 25 µM | GI50 [10] > 23.8 µM | GI50 [11] > 20.6 µM | GI50 [12] > 25 µM | GI50 [13] > 25 µM | GI50 [14] > 25 µM | GI50 [15] > 25 µM | GI50 [16] 19.6 µM | GI50 [17] > 25 µM | GI50 [18] > 25 µM | GI50 [19] > 17.8 µM | GI50 [20] > 25 µM | GI50 [21] > 25 µM | GI50 [22] > 17.7 µM | GI50 [23] > 25 µM | GI50 [24] > 21.9 µM | GI50 [25] > 25 µM | GI50 [26] > 25 µM | GI50 [27] > 25 µM | GI50 [28] > 19.5 µM | GI50 [29] > 25 µM | GI50 [30] > 25 µM | GI50 [31] > 21.1 µM | GI50 [32] > 25 µM | GI50 [33] > 25 µM | GI50 [34] > 21.3 µM | GI50 [35] > 25 µM | GI50 [36] > 25 µM | GI50 [37] > 25 µM | GI50 [38] > 25 µM | GI50 [39] > 18.2 µM | GI50 [40] 11.3 µM | GI50 [41] > 25 µM | GI50 [42] 11.9 µM | GI50 [43] > 25 µM | GI50 [44] 16.1 µM | GI50 [45] > 25 µM | GI50 [46] > 25 µM | GI50 [47] > 25 µM | GI50 [48] > 25 µM | GI50 [49] > 25 µM | GI50 [50] > 25 µM | GI50 [51] > 25 µM | GI50 [52] > 25 µM | GI50 [53] > 25 µM | GI50 [54] > 17.4 µM | GI50 [55] > 19.1 µM | GI50 [56] > 25 µM | GI50 [57] > 25 µM
